Calls of active or inactive are those of the source. The rule behind the calls is not given here.
Tested on: CCRIS mutagenicity, Ames/micronucleus/aberration tests
Assay: CCRIS mutagenicity studies
[1] = Test System: AMES SALMONELLA TYPHIMURIUM, Strain/Indicator: TA100, Metabolic Activation: RAT, LIVER, S-9, PCB, Method: PREINCUBATION
[2] = Test System: AMES SALMONELLA TYPHIMURIUM, Strain/Indicator: TA97, Metabolic Activation: HAMSTER, LIVER, S-9, AROCLOR 1254 (10 OR 30%), Method: PREINCUBATION
[3] = Test System: AMES SALMONELLA TYPHIMURIUM, Strain/Indicator: TA97, Metabolic Activation: NONE, Method: PREINCUBATION
[4] = Test System: AMES SALMONELLA TYPHIMURIUM, Strain/Indicator: TA97, Metabolic Activation: RAT, LIVER, S-9, AROCLOR 1254 (10 OR 30%), Method: PREINCUBATION
[5] = Test System: AMES SALMONELLA TYPHIMURIUM, Strain/Indicator: TA98, Metabolic Activation: NONE, Method: PREINCUBATION
[6] = Test System: AMES SALMONELLA TYPHIMURIUM, Strain/Indicator: TA98, Metabolic Activation: RAT, LIVER, S-9, AROCLOR 1254 (10 OR 30%), Method: PREINCUBATION
[7] = Test System: AMES SALMONELLA TYPHIMURIUM, Strain/Indicator: TA100, Metabolic Activation: HAMSTER, LIVER, S-9, AROCLOR 1254 (10 OR 30%), Method: PREINCUBATION
[8] = Test System: AMES SALMONELLA TYPHIMURIUM, Strain/Indicator: TA100, Metabolic Activation: NONE, Method: PREINCUBATION
[9] = Test System: AMES SALMONELLA TYPHIMURIUM, Strain/Indicator: TA100, Metabolic Activation: RAT, LIVER, S-9, AROCLOR 1254 (10 OR 30%), Method: PREINCUBATION
[10] = Test System: AMES SALMONELLA TYPHIMURIUM, Strain/Indicator: TA1535, Metabolic Activation: HAMSTER, LIVER, S-9, AROCLOR 1254 (10 OR 30%), Method: PREINCUBATION
[11] = Test System: AMES SALMONELLA TYPHIMURIUM, Strain/Indicator: TA1535, Metabolic Activation: NONE, Method: PREINCUBATION
[12] = Test System: AMES SALMONELLA TYPHIMURIUM, Strain/Indicator: TA1535, Metabolic Activation: RAT, LIVER, S-9, AROCLOR 1254 (10 OR 30%), Method: PREINCUBATION
[13] = Test System: AMES SALMONELLA TYPHIMURIUM, Strain/Indicator: TA1537, Metabolic Activation: NONE, Method: STANDARD PLATE

Measured: mutagenic call

CO[C@H](C)[C@](O)(C(=O)OCC1=CCN2CC[C@H](O)[C@@H]12)C(C)C
inactive: Test System: AMES SALMONELLA TYPHIMURIUM, Strain/Indicator: TA100, Metabolic Activation: HAMSTER, LIVER, S-9, PCB, Method: PREINCUBATION inactive; negative; dose related trend; by authors criteria results are positive | [1] inactive; negative; dose related trend; by authors criteria results are positive

N#Cc1ccccc1
active: End Point: IN VITRO MICRONUCLEUS, Test System: CHINESE HAMSTER V79, Metabolic Activation: NONE active; positive
inactive: [2] inactive; negative | [3] inactive; negative | [4] inactive; negative | Test System: AMES SALMONELLA TYPHIMURIUM, Strain/Indicator: TA98, Metabolic Activation: HAMSTER, LIVER, S-9, AROCLOR 1254 (10 OR 30%), Method: PREINCUBATION inactive; negative | Test System: AMES SALMONELLA TYPHIMURIUM, Strain/Indicator: TA98, Metabolic Activation: HAMSTER, LIVER, S-9, AROCLOR 1254, Method: STANDARD PLATE inactive; negative | [5] inactive; negative | Test System: AMES SALMONELLA TYPHIMURIUM, Strain/Indicator: TA98, Metabolic Activation: NONE, Method: STANDARD PLATE inactive; negative | Test System: AMES SALMONELLA TYPHIMURIUM, Strain/Indicator: TA98, Metabolic Activation: RAT LIVER S-9, PHENOBARBITAL AND BETA-NAPHTHOFLAVONE, Method: PREINCUBATION inactive; negative | [6] inactive; negative | Test System: AMES SALMONELLA TYPHIMURIUM, Strain/Indicator: TA98, Metabolic Activation: RAT, LIVER, S-9, AROCLOR 1254, Method: STANDARD PLATE inactive; negative | [7] inactive; negative | Test System: AMES SALMONELLA TYPHIMURIUM, Strain/Indicator: TA100, Metabolic Activation: HAMSTER, LIVER, S-9, AROCLOR 1254, Method: STANDARD PLATE inactive; negative | [8] inactive; negative | Test System: AMES SALMONELLA TYPHIMURIUM, Strain/Indicator: TA100, Metabolic Activation: NONE, Method: STANDARD PLATE inactive; negative | Test System: AMES SALMONELLA TYPHIMURIUM, Strain/Indicator: TA100, Metabolic Activation: RAT LIVER S-9, PHENOBARBITAL AND BETA-NAPHTHOFLAVONE, Method: PREINCUBATION inactive; negative | [9] inactive; negative | Test System: AMES SALMONELLA TYPHIMURIUM, Strain/Indicator: TA100, Metabolic Activation: RAT, LIVER, S-9, AROCLOR 1254, Method: STANDARD PLATE inactive; negative | [10] inactive; negative | Test System: AMES SALMONELLA TYPHIMURIUM, Strain/Indicator: TA1535, Metabolic Activation: HAMSTER, LIVER, S-9, AROCLOR 1254, Method: STANDARD PLATE inactive; negative | [11] inactive; negative | Test System: AMES SALMONELLA TYPHIMURIUM, Strain/Indicator: TA1535, Metabolic Activation: NONE, Method: STANDARD PLATE inactive; negative | Test System: AMES SALMONELLA TYPHIMURIUM, Strain/Indicator: TA1535, Metabolic Activation: RAT LIVER S-9, PHENOBARBITAL AND BETA-NAPHTHOFLAVONE, Method: PREINCUBATION inactive; negative | [12] inactive; negative | Test System: AMES SALMONELLA TYPHIMURIUM, Strain/Indicator: TA1535, Metabolic Activation: RAT, LIVER, S-9, AROCLOR 1254, Method: STANDARD PLATE inactive; negative | Test System: AMES SALMONELLA TYPHIMURIUM, Strain/Indicator: TA1537, Metabolic Activation: HAMSTER, LIVER, S-9, AROCLOR 1254, Method: STANDARD PLATE inactive; negative | Test System: AMES SALMONELLA TYPHIMURIUM, Strain/Indicator: TA1537, Metabolic Activation: NONE, Method: PREINCUBATION inactive; negative | [13] inactive; negative | Test System: AMES SALMONELLA TYPHIMURIUM, Strain/Indicator: TA1537, Metabolic Activation: RAT LIVER S-9, PHENOBARBITAL AND BETA-NAPHTHOFLAVONE, Method: PREINCUBATION inactive; negative | Test System: AMES SALMONELLA TYPHIMURIUM, Strain/Indicator: TA1537, Metabolic Activation: RAT, LIVER, S-9, AROCLOR 1254, Method: STANDARD PLATE inactive; negative | Test System: AMES SALMONELLA TYPHIMURIUM, Strain/Indicator: TA1538, Metabolic Activation: HAMSTER, LIVER, S-9, AROCLOR 1254, Method: STANDARD PLATE inactive; negative | Test System: AMES SALMONELLA TYPHIMURIUM, Strain/Indicator: TA1538, Metabolic Activation: NONE, Method: STANDARD PLATE inactive; negative | Test System: AMES SALMONELLA TYPHIMURIUM, Strain/Indicator: TA1538, Metabolic Activation: RAT, LIVER, S-9, AROCLOR 1254, Method: STANDARD PLATE inactive; negative | Test System: E. COLI, Strain/Indicator: WP2UVRA, Metabolic Activation: NONE, Method: PREINCUBATION inactive; negative | Test System: E. COLI, Strain/Indicator: WP2UVRA, Metabolic Activation: RAT LIVER S-9, PHENOBARBITAL AND BETA-NAPHTHOFLAVONE, Method: PREINCUBATION inactive; negative | Test System: MOUSE LYMPHOMA, Strain/Indicator: L5178Y (TK+/TK-), Metabolic Activation: NONE, Method: SUSPENSION/PLATE inactive; negative. reevaluation of results: negative | Test System: MOUSE LYMPHOMA, Strain/Indicator: L5178Y (TK+/TK-), Metabolic Activation: RAT, LIVER, S-9, AROCLOR 1254, Method: SUSPENSION/PLATE inactive; negative. reevaluation of results: negative

COC(=O)C(/C=C(C)/C=C(C)/C=C/C=C(\C)C(=O)[C@]12O[C@H]1[C@@](O)(CCO)NC2=O)=C/CO
active: [8] active; positive

Clc1ccc2ccccc2c1
inactive: [2] inactive; negative | [3] inactive; negative | [4] inactive; negative | Test System: AMES SALMONELLA TYPHIMURIUM, Strain/Indicator: TA98, Metabolic Activation: HAMSTER, LIVER, S-9, AROCLOR 1254 (10%), Method: PREINCUBATION inactive; negative | Test System: AMES SALMONELLA TYPHIMURIUM, Strain/Indicator: TA98, Metabolic Activation: HAMSTER, LIVER, S-9, AROCLOR 1254 (30%), Method: PREINCUBATION inactive; negative | [5] inactive; negative | [6] inactive; negative | [7] inactive; negative | [8] inactive; negative | [9] inactive; negative | [10] inactive; negative | [11] inactive; negative | [12] inactive; negative

O=S=O
active: End Point: IN VIVO CHROMOSOMAL ABERRATIONS, Test System: BONE MARROW CELLS, Species: MOUSE, Strain/Sex: KUNMING/MALE, FEMALE, Route: INHALATION active; positive; exposure up to 5 d not effective

O=C1c2ccccc2C(=O)c2cc(CO)ccc21
inactive: [5] inactive; negative | Test System: AMES SALMONELLA TYPHIMURIUM, Strain/Indicator: TA98, Metabolic Activation: RAT, LIVER, S-9, PCB, Method: PREINCUBATION inactive; negative | [8] inactive; negative | [1] inactive; negative | Test System: UDS RODENT HEPATOCYTES, Strain/Indicator: THY INCORP (NON-S-PHASE), Metabolic Activation: NONE, Method: AUTORADIOGRAPHY inactive; negative
active: Test System: UDS RODENT HEPATOCYTES, Strain/Indicator: THY INCORP (NON-S-PHASE), Metabolic Activation: PHENOBARBITAL, Method: AUTORADIOGRAPHY active; positive

CN(C)CCNC(=O)c1cccc2c(=O)c3ccccc3oc12
active: [13] active; positive
